Laboratory results reported in US9068228B2, “Method for screening ameliorants of dry skin caused by atopic dermatitis using bleomycin hydrolase activity as indicator” (Shiseido Company, Ltd., priority 2009, dated 2015).
“Also recorded” adds a separate entry of the source.

Experiments:
Format in all cases: cell-based, human
bleomycin hydrolase mRNA = assay: Effect of cytokines on bleomycin hydrolase mRNA expression by quantitative PCR (Experiment 5, FIG. 14); settings: proliferative stage cultured keratinocytes, incubated 24 hours; IL-4 and TNF-α 0.1-10 ng/ml, IFN-γ 1.0-100 ng/ml
Procedure: (§1) Normal human epidermal keratinocytes derived from neonatal epidermis (Kurabo, Osaka, Japan) were cultured in EpiLife medium (Cascade Biologics, Portland, Oreg.) containing low-concentration (0.03 mM) calcium and HKGS Growth Supplement (Cascade Biologics). All cells were incubated at 37° C. while supplying 5% CO2 and were used within 4 passages. Cells were collected at 70% confluence, 100% confluence, 2 days after confluence and 2 days after confluence in 2 mM calcium.
The expression level of bleomycin hydrolase in keratinocytes was measured by quantitative PCR using the method described below. Measurement was carried out using the Light Cycler 480 (Roche Diagnostics GmbH, Mannheim, Germany), while Light Cycler FastStart DNA Master CYBR Green I was used for the reagent. 0.6 μl aliquots of each of the following bleomycin hydrolase primers and […] of water were added to 10 μl of SYBR Green I master mix to bring to a total volume of 20 μl followed by carrying out 45 cycles of PCR consisting of 15 seconds at 95° C., 20 seconds at 55° C. and 20 seconds at 72° C. The results obtained were corrected by comparing with the results for a housekeeping gene in the form of G3PDH. • Forward primer: […] (SEQ ID NO. 1) • Reverse primer: […] (SEQ ID NO. 2)
IL-4 (final concentration: 0.1, 1.0 or 10 ng/ml), TNF-α (final concentration: 0.1, 1.0 or 10 ng/ml) and IFN-γ (final concentration: 1.0, 10 or 100 ng/ml) were respectively added to proliferative stage cultured keratinocytes, and after incubating for 24 hours, RNA was collected using Isogen. Expression of bleomycin hydrolase mRNA was measured by quantitative PCR. Based on the results shown in FIG. 14, interleukin-4 (IL-4), which is a type of Th2 cytokine, was determined to down-regulate expression of bleomycin hydrolase.

BH mRNA = assay: Real-time RT-PCR analysis of BH gene expression under cytokines (Experiment 6, FIG. 20A); settings: proliferative keratinocytes, 24 hours, ratio to untreated control
Procedure: as §1
(§2) The transcription levels of BH and related factors were analyzed by quantitative real-time RT-PCR. Total RNA was extracted from cultured cells using Isogen (Nippon Gene, Tokyo, Japan) in accordance with the manufacturer's protocol. The total RNA was reverse-transcribed to cDNA using SuperScript™ II (Invitrogen, Carlsbad, Calif.). Real-time RT-PCR was carried out with the LightCycler Raid Cycler System using the LightCycler 480 SYBR Green I Master (Roche Diagnostics) in accordance with the manufacturer's protocol. Glyceraldehyde 3-phosphate dehydrogenase (GAPDH) was used as a reference gene. Specificity of the amplified fragments was confirmed by quantitative analysis of melting curves using LightCycler analytical software. The amounts of mRNA were standardized based on the mRNA of GAPDH and finally indicated as a ratio to mRNA of an untreated control.
Since BH is an NMF-generating enzyme, it has the potential to be involved in the pathophysiology of AD. Accordingly, an investigation was made of the effects of cytokines Th1, Th2 and Th17 on BH gene expression. […] Similar results were obtained with differentiated keratinocytes (data not shown). A promoter assay was carried out in order to determine the role of IFN-γ in regulation of BH gene expression, and response elements were specified. […] In addition, IRF-1 and IRF-2 gene expression was inhibited using small interfering RNA (siRNA) in order to determine whether or not IRF-1/2 is an essential mediator of IFN-γ-induced down-regulation of BH.

BH promoter = BH promoter luciferase assay in transfected keratinocytes (FIG. 20B)
Procedure: The graphs indicate the effects of cytokines Th1, Th2 and Th17 on BH gene expression. […] The graphs indicate BH promoter activity in cultured keratinocytes in the presence of IFN-γ. Keratinocytes were transfected with pGL3-216 containing intact IRF-1/2 binding sites of BH promoter regions followed by treating for 24 hours with IFN-γ (upper panel). Keratinocytes were transfected with ΔpGL3-616 (IRF-1/2 deletion mutants) followed by treating for 24 hours in the presence or absence of IFN-γ or IL-4 at 10 ng/ml (lower panel). […] Keratinocytes were transfected with siRNA (40 nM) of IRF-1 or IRF-2 followed by culturing for 24 hours, treating with IFN-γ at 10 ng/ml and isolating RNA after further culturing for 24 hours. The panel on the right indicates the silencing effects of IRF-1 and IRF-2.
Keratinocytes were cultured in a 12-well tissue culture plate at a density of 5×10^4 cells/well, and were transfected using FuGene HD Transfection reagent (Roche Diagnostics, Basel, Switzerland) and 1 μg aliquots of each construct. […] Luciferase activity was analyzed using the Dual Luciferase Reporter Assay System (Promega) and Autolumat Plus Luminometer (Berthold Technologies, Bad Wildbad, Germany). […]

IRF-1 mRNA = assay: Real-time RT-PCR of transcription factor expression under cytokines (FIG. 22)
Procedure: as §2
(§3) An investigation was made of the cytokine-dependent regulation of these transcription factors.

IRF-2 = assay: as above
Procedure: as §2, §3

MZF-1 = assay: as above
Procedure: as §2, §3

Sp-1 = assay: as above
Procedure: as §2, §3

[1] = cultured keratinocytes, concentration not given

| Substance | expression of bleomycin hydrolase mRNA (bleomycin hydrolase mRNA) | expression of BH mRNA (BH mRNA) | expression of BH mRNA (BH mRNA; listed as IFN) | BH promoter activity after deletion of IRF-1/2 binding sequence (BH promoter; keratinocytes transfected with IRF-1/2 deletion mutant, 10 ng/ml, 24 hours) | BH promoter activity (BH promoter; proliferative keratinocytes transfected with pGL3-BH-616 containing IRF-1/2 binding sequence, IFN-γ 24 hours) | expression of IRF-1 mRNA (IRF-1 mRNA; IFN-γ, dose-dependent) | expression of IRF-2 (IRF-2; in the presence of IFN-γ) | expression of IRF-1 (IRF-1 mRNA; IL-4 at 100 ng/ml only) | expression of IRF-2 (IRF-2; IL-4 at 100 ng/ml only) | expression of MZF-1 (MZF-1; IL-4 at 10 ng/ml) | expression of MZF-1 (MZF-1; [1]) | expression of Sp-1 (Sp-1; IL-4 at 10 ng/ml) | expression of Sp-1 (Sp-1; [1]) |
| --- | --- | --- | --- | --- | --- | --- | --- | --- | --- | --- | --- | --- | --- |
| IFN-γ: Human IFN-γ purchased from Peprotech EC; Th1 cytokine | significantly increases | down-regulated; also recorded: remarkably decreased | significantly decreased | no longer inhibited | down-regulated | strongly up-regulates | up-regulated | – | – | – | – | – | – |
| IL-4: Human IL-4 purchased from Peprotech EC; Th2 cytokine | down-regulates | did not demonstrate any direct action whatsoever | – | – | – | – | – | significantly enhanced | significantly enhanced | most effectively down-regulated | significantly inhibited; also recorded: down-regulated | most effectively down-regulated | significantly inhibited; also recorded: down-regulated |
| IL-13: Human IL-13 produced by R&D Systems Inc.; Th2 cytokine | – | did not demonstrate any direct action whatsoever | – | – | – | – | – | – | – | – | significantly inhibited | – | significantly inhibited |
| TNF-α | significantly increases | – | – | – | – | – | – | – | – | – | – | – | – |
